Measured values: the supplement of paper PMC9663587

Assays:
[1] = compound: CCCCOc1c(C(=O)c2c(F)cc(C)cc2F)c[nH]c2nncc1-2
Luminespib/NVP-AUY922 = compound: CCNC(=O)c1noc(-c2cc(C(C)C)c(O)cc2O)c1-c1ccc(CN2CCOCC2)cc1 [Luminespib/NVP-AUY922]
THZ-P1-2 = compound: CN(C)C/C=C/C(=O)NC1=CC=C(C=C1)C(=O)NC2=CC=CC(=C2)NC3=NC=NC(=C3)C4=CNC5=CC=CC=C54 [THZ-P1-2]
BSJ-01-175 = compound: CN(C)C/C=C/C(=O)Nc1ccc(O[C@@H]2CCC[C@@H](Nc3ncc(Cl)c(-c4c[nH]c5ccccc45)n3)C2)cc1 [BSJ-01-175]
Saracatinib/AZD0530 = compound: CN1CCN(CCOc2cc(OC3CCOCC3)c3c(Nc4c(Cl)ccc5c4OCO5)ncnc3c2)CC1 [Saracatinib/AZD0530]
Ceritinib/LDK378 = compound: Cc1cc(Nc2ncc(Cl)c(Nc3ccccc3S(=O)(=O)C(C)C)n2)c(OC(C)C)cc1C1CCNCC1 [Ceritinib/LDK378]
YKL-5-124 = compound: C=CC(=O)Nc1ccc(C(=O)Nc2[nH]nc3c2CN(C(=O)N[C@H](CN(C)C)c2ccccc2)C3(C)C)cc1 [YKL-5-124]; assay: increase in dead-cell fraction, 72 h; higher = more death;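 further: breast cancer cell lines in 384-well plates, stained with Hoechst plus LIVE/DEAD far red dye and imaged, cells above an LDR intensity threshold counted dead, Hoechst-negative corpses included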
BSJ-03-123 = compound: CC(=O)c1c(C)c2cnc(Nc3ccc(N4CCN(CCOCCOCCOCCNC(=O)COc5cccc6c5C(=O)N(C5CCC(=O)NC5=O)C6=O)CC4)cn3)nc2n(C2CCCC2)c1=O [BSJ-03-123]; assay: as above
[2] = compound: CC(=O)c1c(C)c2cnc(Nc3ccc(N4CCNCC4)cn3)nc2n(C2CCCC2)c1=O; assay: as above
[3] = compound: CCN1CCN(Cc2ccc(Nc3ncc(F)c(-c4cc(F)c5nc(C)n(C(C)C)c5c4)n3)nc2)CC1; assay: as above
Neratinib/HKI272 = compound: CCOc1cc2ncc(C#N)c(Nc3ccc(OCc4ccccn4)c(Cl)c3)c2cc1NC(=O)/C=C/CN(C)C [Neratinib/HKI272]; assay: as above
[4] = compound: CCc1cnn2c(NCc3ccc[n+]([O-])c3)cc(N3CCCC[C@H]3CCO)nc12; assay: as above
LEE011/Ribociclib = compound: CN(C)C(=O)c1cc2cnc(Nc3ccc(N4CCNCC4)cn3)nc2n1C1CCCC1 [LEE011/Ribociclib]; assay: as above
THZ531 = compound: CN(C)C/C=C/C(=O)Nc1ccc(C(=O)N2CCC[C@@H](Nc3ncc(Cl)c(-c4c[nH]c5ccccc45)n3)C2)cc1 [THZ531]; assay: as above
THZ1 = compound: CN(C)C/C=C/C(=O)Nc1ccc(C(=O)Nc2cccc(Nc3ncc(Cl)c(-c4c[nH]c5ccccc45)n3)c2)cc1 [THZ1]; assay: as above
Flavopiridol = compound: CN1CC[C@H](c2c(O)cc(O)c3c(=O)cc(-c4ccccc4Cl)oc23)[C@H](O)C1 [Flavopiridol]; assay: as above
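Wherever GR50, 72 h is given: breast cancer and non-malignant breast epithelial cell lines, Deep Dye Drop or Dye Drop imaging, nine half-log doses, GR normalized to time-zero plates and DMSO-only controls.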

Cell Line: HCC38
- GR50, 72 h [1]: 0.00391 µM
- GR50, 72 h (Luminespib/NVP-AUY922): 0.00714 µM
- GR50, 72 h (THZ-P1-2): 4.23 µM
- GR50, 72 h (BSJ-01-175): 0.13 µM
- GR50, 72 h (Saracatinib/AZD0530): > 10 µM
- GR50, 72 h (Ceritinib/LDK378): 1.83 µM
- increase in dead-cell fraction (YKL-5-124; 0.001 µM): 0.0525
- increase in dead-cell fraction (YKL-5-124; 0.003162 µM): 0.0845
- increase in dead-cell fraction (YKL-5-124; 0.01 µM): 0.102
- increase in dead-cell fraction (YKL-5-124; 0.03162 µM): 0.109
- increase in dead-cell fraction (YKL-5-124; 0.1 µM): 0.115
- increase in dead-cell fraction (YKL-5-124; 0.3162 µM): 0.184
- increase in dead-cell fraction (YKL-5-124; 1 µM): 0.197
- increase in dead-cell fraction (YKL-5-124; 3.162 µM): 0.147
- increase in dead-cell fraction (YKL-5-124; 10 µM): 0.407
- increase in dead-cell fraction (BSJ-03-123; 0.001 µM): 0.0173
- increase in dead-cell fraction (BSJ-03-123; 0.003162 µM): 0.0254
- increase in dead-cell fraction (BSJ-03-123; 0.01 µM): 0.0387
- increase in dead-cell fraction (BSJ-03-123; 0.03162 µM): 0.0378
- increase in dead-cell fraction (BSJ-03-123; 0.1 µM): 0.0296
- increase in dead-cell fraction (BSJ-03-123; 0.3162 µM): 0.0344
- increase in dead-cell fraction (BSJ-03-123; 1 µM): 0.0408
- increase in dead-cell fraction (BSJ-03-123; 3.162 µM): 0.0384
- increase in dead-cell fraction (BSJ-03-123; 10 µM): 0.172
- increase in dead-cell fraction ([2]; 0.0003162 µM): 0.0028
- increase in dead-cell fraction ([2]; 0.001 µM): -0.0069
- increase in dead-cell fraction ([2]; 0.003162 µM): 0.0044
- increase in dead-cell fraction ([2]; 0.01 µM): 0.0202
- increase in dead-cell fraction ([2]; 0.03162 µM): 0.0549
- increase in dead-cell fraction ([2]; 0.1 µM): 0.0669
- increase in dead-cell fraction ([2]; 0.3162 µM): 0.0676
- increase in dead-cell fraction ([2]; 1 µM): 0.0915
- increase in dead-cell fraction ([2]; 3.162 µM): 0.0488
- increase in dead-cell fraction ([3]; 0.001 µM): 0.0177
- increase in dead-cell fraction ([3]; 0.003162 µM): 0.0096
- increase in dead-cell fraction ([3]; 0.01 µM): 0.0258
- increase in dead-cell fraction ([3]; 0.03162 µM): 0.0545
- increase in dead-cell fraction ([3]; 0.1 µM): 0.0758
- increase in dead-cell fraction ([3]; 0.3162 µM): 0.0601
- increase in dead-cell fraction ([3]; 1 µM): 0.0699
- increase in dead-cell fraction ([3]; 3.162 µM): 0.0988
- increase in dead-cell fraction ([3]; 10 µM): 0.415
- increase in dead-cell fraction (Neratinib/HKI272; 0.0003162 µM): 0.0178
- increase in dead-cell fraction (Neratinib/HKI272; 0.001 µM): 0.006
- increase in dead-cell fraction (Neratinib/HKI272; 0.003162 µM): 0.0166
- increase in dead-cell fraction (Neratinib/HKI272; 0.01 µM): 0.0088
- increase in dead-cell fraction (Neratinib/HKI272; 0.03162 µM): 0.0102
- increase in dead-cell fraction (Neratinib/HKI272; 0.1 µM): -0.0035
- increase in dead-cell fraction (Neratinib/HKI272; 0.3162 µM): 0.0102
- increase in dead-cell fraction (Neratinib/HKI272; 1 µM): 0.0009
- increase in dead-cell fraction (Neratinib/HKI272; 3.162 µM): 0.0842
- increase in dead-cell fraction ([4]; 0.0001 µM): -0.0032
- increase in dead-cell fraction ([4]; 0.0003162 µM): -0.0125
- increase in dead-cell fraction ([4]; 0.001 µM): -0.0108
- increase in dead-cell fraction ([4]; 0.003162 µM): -0.0127
- increase in dead-cell fraction ([4]; 0.01 µM): 0.0353
- increase in dead-cell fraction ([4]; 0.03162 µM): 0.436
- increase in dead-cell fraction ([4]; 0.1 µM): 0.514
- increase in dead-cell fraction ([4]; 0.3162 µM): 0.511
- increase in dead-cell fraction ([4]; 1 µM): 0.536
- increase in dead-cell fraction (LEE011/Ribociclib; 0.001 µM): -0.0042
- increase in dead-cell fraction (LEE011/Ribociclib; 0.003162 µM): 0.0013
- increase in dead-cell fraction (LEE011/Ribociclib; 0.01 µM): 0.0118
- increase in dead-cell fraction (LEE011/Ribociclib; 0.03162 µM): 0.0031
- increase in dead-cell fraction (LEE011/Ribociclib; 0.1 µM): 0.0263
- increase in dead-cell fraction (LEE011/Ribociclib; 0.3162 µM): 0.0209
- increase in dead-cell fraction (LEE011/Ribociclib; 1 µM): 0.026
- increase in dead-cell fraction (LEE011/Ribociclib; 3.162 µM): 0.0204
- increase in dead-cell fraction (LEE011/Ribociclib; 10 µM): 0.0467
- increase in dead-cell fraction (THZ531; 0.0001 µM): -0.0063
- increase in dead-cell fraction (THZ531; 0.0003162 µM): 0.0002
- increase in dead-cell fraction (THZ531; 0.001 µM): 0.0018
- increase in dead-cell fraction (THZ531; 0.003162 µM): 0.0016
- increase in dead-cell fraction (THZ531; 0.01 µM): -0.0096
- increase in dead-cell fraction (THZ531; 0.03162 µM): 0.0087
- increase in dead-cell fraction (THZ531; 0.1 µM): 0.0251
- increase in dead-cell fraction (THZ531; 0.3162 µM): 0.156
- increase in dead-cell fraction (THZ531; 1 µM): 0.327
- increase in dead-cell fraction (THZ1; 0.0001 µM): -0.0033
- increase in dead-cell fraction (THZ1; 0.0003162 µM): -0.0036
- increase in dead-cell fraction (THZ1; 0.001 µM): -0.0076
- increase in dead-cell fraction (THZ1; 0.003162 µM): -0.0032
- increase in dead-cell fraction (THZ1; 0.01 µM): 0.0133
- increase in dead-cell fraction (THZ1; 0.03162 µM): 0.0431
- increase in dead-cell fraction (THZ1; 0.1 µM): 0.249
- increase in dead-cell fraction (THZ1; 0.3162 µM): 0.303
- increase in dead-cell fraction (THZ1; 1 µM): 0.593
- increase in dead-cell fraction (Flavopiridol; 0.0001 µM): -0.0026
- increase in dead-cell fraction (Flavopiridol; 0.0003162 µM): -0.0024
- increase in dead-cell fraction (Flavopiridol; 0.001 µM): -0.0081
- increase in dead-cell fraction (Flavopiridol; 0.003162 µM): 0.0129
- increase in dead-cell fraction (Flavopiridol; 0.01 µM): 0.0083
- increase in dead-cell fraction (Flavopiridol; 0.03162 µM): 0.0066
- increase in dead-cell fraction (Flavopiridol; 0.1 µM): 0.0013
- increase in dead-cell fraction (Flavopiridol; 0.3162 µM): 0.112
- increase in dead-cell fraction (Flavopiridol; 1 µM): 0.449
